{
  "source": "patent US20080188543A1",
  "about": "“PHARMACEUTICAL COMPOSITIONS CONTAINING SUBSTITUTED INDOLE ACID DERIVATIVES AS INHIBITORS OF PLASMINOGEN ACTIVATOR INHIBITOR-1 (PAI-1)” (Wyeth, priority 2007, published 2008)",
  "assay": "Solubility profile (free acid in HCl/NaOH solution, supernatants assayed by HPLC)",
  "type": "physicochemical",
  "method": "A solubility profile for [1-(4-tert-butylbenzyl)-5-(3-methylphenyl)-1H-indol-3-yl](oxo)acetic acid was generated using the free acid in HCl/NaOH solution (See FIG. 3). Solutions were centrifuged after 24 hours equilibration (2 hours for pH<4 to avoid degradation) and the supernatants were assayed by HPLC.",
  "data": [
    {"smiles": "Cc1cccc(-c2ccc3c(c2)c(C(=O)C(=O)O)cn3Cc2ccc(C(C)(C)C)cc2)c1", "note": "[[1-(4-tert-Butylbenzyl)-5-(3-methylphenyl)-1H-indol-3-yl](oxo)acetic acid]", "values": [
      {"measurement": "pH-solubility profile", "setting": "above pH 4 up to pH 8, free acid in HCl/NaOH, 24 hours equilibration", "value": "solubility increases with increasing pH"},
      {"measurement": "pH-solubility profile", "setting": "above pH 8, precipitation of the sodium salt", "value": "solubility decreases"},
      {"measurement": "solubility", "setting": "pH<4, the stomach condition, 2 hours equilibration", "value": "poor solubility"},
      {"measurement": "aqueous solubility", "setting": "upon ionization in aqueous media", "value": "approximately 24 uG/mL"}
    ]}
  ]
}
